The source made the active and inactive calls.
How the values were obtained:
[1] = HEK-293T cell viability reduction – luminescence, B-cell screen hits, cytotoxicity control for BCR NF-kB inhibitor project, dose response (AID 489021); type: functional, cell-based;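 note: HEK-293T cells carrying an NF-kB luciferase reporter; cells exposed to compound for about 14 hours before viability readout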
[2] = target: T1, High affinity choline transporter 1 (Homo sapiens, UniProt Q9GZV3); experiment: human choline transporter potentiators, potency – cell-based, 10-point CRC, membrane potential dye, dose response (AID 602376); type: functional
T1 sequence (Q9GZV3 whole entry): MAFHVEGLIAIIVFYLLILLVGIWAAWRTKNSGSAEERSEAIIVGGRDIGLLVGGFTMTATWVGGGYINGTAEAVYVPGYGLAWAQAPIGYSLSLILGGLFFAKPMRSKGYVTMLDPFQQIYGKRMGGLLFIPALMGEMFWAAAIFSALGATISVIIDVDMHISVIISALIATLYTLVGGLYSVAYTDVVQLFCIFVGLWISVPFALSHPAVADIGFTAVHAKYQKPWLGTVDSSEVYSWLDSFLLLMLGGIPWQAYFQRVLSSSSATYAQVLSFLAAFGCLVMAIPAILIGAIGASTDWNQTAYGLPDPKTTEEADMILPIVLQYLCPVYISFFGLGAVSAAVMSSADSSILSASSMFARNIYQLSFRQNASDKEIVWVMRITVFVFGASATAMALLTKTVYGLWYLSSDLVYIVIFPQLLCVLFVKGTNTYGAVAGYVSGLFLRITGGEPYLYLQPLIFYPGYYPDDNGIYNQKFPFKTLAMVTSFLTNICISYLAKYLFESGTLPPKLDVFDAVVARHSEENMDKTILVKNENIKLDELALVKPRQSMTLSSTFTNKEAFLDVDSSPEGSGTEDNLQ

[3] = target: Luciferin 4-monooxygenase (Photinus pyralis, UniProt P08659); experiment: inhibition of purified Photinus pyralis luciferase – biochemical, luminescence, dose response (AID 1891)
[4] = Luminescence Cell-Based Dose Confirmation HTS to Identify Inhibitors of Platelet Dense Granule Release. [Related pubchem assays: 1663 (Primary HTS), 1678 (Summary of Project)]; type: functional
[5] = target: T2, Sentrin-specific protease 6 (Homo sapiens, UniProt Q9GZR1); experiment: SAR Analysis of small molecule inhibitors of Sentrin-specific protease 6 (SENP6) using a Luminescent assay. [Related pubchem assays (depositor defined):AID2582, AID2599]; type: functional
T2 sequence (Q9GZR1 whole entry): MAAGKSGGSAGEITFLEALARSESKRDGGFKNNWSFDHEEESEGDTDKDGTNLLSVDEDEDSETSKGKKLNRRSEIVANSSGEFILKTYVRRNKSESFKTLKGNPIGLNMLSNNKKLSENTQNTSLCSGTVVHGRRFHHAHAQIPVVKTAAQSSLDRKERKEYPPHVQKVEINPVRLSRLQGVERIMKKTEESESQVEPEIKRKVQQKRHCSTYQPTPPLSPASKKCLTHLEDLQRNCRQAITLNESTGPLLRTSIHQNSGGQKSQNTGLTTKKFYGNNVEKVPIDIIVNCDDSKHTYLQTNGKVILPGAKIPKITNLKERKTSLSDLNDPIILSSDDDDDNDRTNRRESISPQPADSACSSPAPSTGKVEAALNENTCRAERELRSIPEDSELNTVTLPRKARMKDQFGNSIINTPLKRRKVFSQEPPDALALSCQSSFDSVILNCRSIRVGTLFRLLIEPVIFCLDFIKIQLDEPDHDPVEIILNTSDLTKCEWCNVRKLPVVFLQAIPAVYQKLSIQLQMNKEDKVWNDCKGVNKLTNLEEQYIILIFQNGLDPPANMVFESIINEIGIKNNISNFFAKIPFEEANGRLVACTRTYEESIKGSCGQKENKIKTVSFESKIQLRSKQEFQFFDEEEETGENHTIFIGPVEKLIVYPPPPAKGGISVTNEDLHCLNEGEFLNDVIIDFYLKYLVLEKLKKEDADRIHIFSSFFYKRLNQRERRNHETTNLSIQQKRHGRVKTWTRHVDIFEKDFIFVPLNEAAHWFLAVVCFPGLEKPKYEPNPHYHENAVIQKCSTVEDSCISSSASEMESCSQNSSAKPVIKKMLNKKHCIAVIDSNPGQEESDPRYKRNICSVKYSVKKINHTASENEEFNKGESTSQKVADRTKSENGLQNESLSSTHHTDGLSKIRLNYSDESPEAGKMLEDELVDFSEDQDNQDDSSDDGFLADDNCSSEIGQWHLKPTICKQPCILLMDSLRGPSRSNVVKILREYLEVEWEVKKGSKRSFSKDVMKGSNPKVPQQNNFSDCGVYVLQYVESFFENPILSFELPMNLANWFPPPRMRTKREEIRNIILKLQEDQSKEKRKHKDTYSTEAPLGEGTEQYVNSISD

[6] = target: T3, Sentrin-specific protease 7 (Homo sapiens, UniProt Q9BQF6); experiment: inhibition of human SENP7 cleavage activity – biochemical, luminescence, SAR follow-up (AID 504497); type: functional
T3 sequence (Q9BQF6 whole entry): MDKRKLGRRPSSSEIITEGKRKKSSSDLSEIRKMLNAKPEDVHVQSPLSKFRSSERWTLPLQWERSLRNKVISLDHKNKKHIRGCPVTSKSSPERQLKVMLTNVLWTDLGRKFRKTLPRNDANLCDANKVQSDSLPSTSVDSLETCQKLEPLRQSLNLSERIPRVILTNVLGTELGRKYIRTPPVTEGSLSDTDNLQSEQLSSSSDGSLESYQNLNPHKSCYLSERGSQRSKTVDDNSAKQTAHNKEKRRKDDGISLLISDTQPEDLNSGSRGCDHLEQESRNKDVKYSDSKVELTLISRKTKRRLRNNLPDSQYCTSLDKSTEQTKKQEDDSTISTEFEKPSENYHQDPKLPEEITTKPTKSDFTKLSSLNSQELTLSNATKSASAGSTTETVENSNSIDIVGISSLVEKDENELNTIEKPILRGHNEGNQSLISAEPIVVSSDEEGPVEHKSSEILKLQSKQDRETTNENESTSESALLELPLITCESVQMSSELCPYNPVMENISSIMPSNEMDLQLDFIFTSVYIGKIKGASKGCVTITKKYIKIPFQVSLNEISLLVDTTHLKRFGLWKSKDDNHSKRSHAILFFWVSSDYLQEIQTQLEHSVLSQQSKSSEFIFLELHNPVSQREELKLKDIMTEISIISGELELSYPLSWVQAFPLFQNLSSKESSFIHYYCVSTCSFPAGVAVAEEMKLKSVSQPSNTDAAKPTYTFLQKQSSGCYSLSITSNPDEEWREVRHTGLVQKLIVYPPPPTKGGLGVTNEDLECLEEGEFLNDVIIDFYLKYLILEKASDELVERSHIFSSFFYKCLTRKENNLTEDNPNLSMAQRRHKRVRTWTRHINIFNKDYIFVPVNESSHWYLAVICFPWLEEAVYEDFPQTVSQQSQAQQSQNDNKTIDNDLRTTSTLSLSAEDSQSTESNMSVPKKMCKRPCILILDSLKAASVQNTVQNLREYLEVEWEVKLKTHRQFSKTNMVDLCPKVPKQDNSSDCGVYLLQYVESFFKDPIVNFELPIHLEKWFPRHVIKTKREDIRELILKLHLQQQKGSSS

Caspase-3 = target: T4, Caspase-3 (Homo sapiens, UniProt P42574); experiment: SAR Analysis of small molecule inhibitors of Sentrin-specific proteases (SENPs) using a Caspase-3 Selectivity assay. [Related pubchem assays (depositor defined):AID2540, AID2599, AID434973, AID489001]; type: functional
T4 sequence (P42574 whole entry): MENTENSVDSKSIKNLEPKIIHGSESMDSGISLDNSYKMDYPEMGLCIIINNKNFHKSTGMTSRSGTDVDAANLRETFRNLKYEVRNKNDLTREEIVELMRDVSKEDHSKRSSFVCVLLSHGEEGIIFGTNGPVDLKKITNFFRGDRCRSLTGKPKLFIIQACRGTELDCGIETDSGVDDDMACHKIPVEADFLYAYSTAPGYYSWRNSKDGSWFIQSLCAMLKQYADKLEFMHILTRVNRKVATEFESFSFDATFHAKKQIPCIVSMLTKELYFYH

[7] = target: T5, Sentrin-specific protease 8 (Homo sapiens, UniProt Q96LD8); experiment: inhibition of human SENP8 cleavage activity – biochemical, luminescence, SAR follow-up (AID 504501); type: functional
T5 sequence (Q96LD8 whole entry): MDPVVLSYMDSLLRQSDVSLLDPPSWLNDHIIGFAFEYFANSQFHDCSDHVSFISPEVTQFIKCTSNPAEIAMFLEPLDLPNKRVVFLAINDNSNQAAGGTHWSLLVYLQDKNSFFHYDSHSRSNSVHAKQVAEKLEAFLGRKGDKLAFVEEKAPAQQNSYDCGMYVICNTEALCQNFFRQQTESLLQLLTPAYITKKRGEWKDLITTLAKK

LIM domain kinase 1 = LIM domain kinase 1 (Homo sapiens, UniProt P53667); experiment: Navigating the Kinome. Panel member name: LIMK1; type: functional
[8] = target: Serine/threonine-protein kinase Chk1 (Homo sapiens, UniProt O14757); type: functional;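 note: measured as one member of a kinome-wide kinase profiling panel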
[9] = target: T6, Serine/threonine-protein kinase Nek2 (Homo sapiens, UniProt P51955); type: functional
T6 sequence (P51955 whole entry): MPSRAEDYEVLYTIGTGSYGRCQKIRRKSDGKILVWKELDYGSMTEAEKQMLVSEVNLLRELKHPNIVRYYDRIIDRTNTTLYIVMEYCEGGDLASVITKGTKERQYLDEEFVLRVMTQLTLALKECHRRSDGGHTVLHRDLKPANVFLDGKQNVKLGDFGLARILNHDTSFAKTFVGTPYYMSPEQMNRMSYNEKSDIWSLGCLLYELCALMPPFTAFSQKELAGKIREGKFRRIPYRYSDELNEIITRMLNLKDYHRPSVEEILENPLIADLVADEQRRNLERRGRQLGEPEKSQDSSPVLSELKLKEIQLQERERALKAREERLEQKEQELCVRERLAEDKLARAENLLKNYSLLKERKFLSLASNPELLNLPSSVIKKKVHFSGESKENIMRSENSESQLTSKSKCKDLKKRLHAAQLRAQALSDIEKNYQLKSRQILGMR

[10] = target: Cyclin-dependent kinase 8 (Homo sapiens, UniProt P49336); experiment: Navigating the Kinome. Panel member name: CDK8; type: functional
[11] = target: Melanin-concentrating hormone receptor 1 (Homo sapiens, UniProt Q99705); experiment: Late-stage fluorescence-based counterscreen for antagonists of the G-protein coupled receptor 7 (GPR7): cell-based dose response assay to identify antagonists of the melanin-concentrating hormone receptor 1 (MCHR1) Set 5.; type: functional
Sequence of Melanin-concentrating hormone receptor 1 (Q99705 whole entry): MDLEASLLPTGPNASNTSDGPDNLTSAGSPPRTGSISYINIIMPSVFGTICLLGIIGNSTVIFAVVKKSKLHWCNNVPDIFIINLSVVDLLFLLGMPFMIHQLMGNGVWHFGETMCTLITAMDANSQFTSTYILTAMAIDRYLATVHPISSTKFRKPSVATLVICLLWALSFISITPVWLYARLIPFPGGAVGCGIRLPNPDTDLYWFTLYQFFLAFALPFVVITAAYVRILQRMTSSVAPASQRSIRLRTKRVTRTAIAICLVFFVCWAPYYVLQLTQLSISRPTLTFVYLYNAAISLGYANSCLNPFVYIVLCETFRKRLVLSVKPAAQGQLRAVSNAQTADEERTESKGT

Sequence of LIM domain kinase 1 (P53667 whole entry, the tested form may be a part): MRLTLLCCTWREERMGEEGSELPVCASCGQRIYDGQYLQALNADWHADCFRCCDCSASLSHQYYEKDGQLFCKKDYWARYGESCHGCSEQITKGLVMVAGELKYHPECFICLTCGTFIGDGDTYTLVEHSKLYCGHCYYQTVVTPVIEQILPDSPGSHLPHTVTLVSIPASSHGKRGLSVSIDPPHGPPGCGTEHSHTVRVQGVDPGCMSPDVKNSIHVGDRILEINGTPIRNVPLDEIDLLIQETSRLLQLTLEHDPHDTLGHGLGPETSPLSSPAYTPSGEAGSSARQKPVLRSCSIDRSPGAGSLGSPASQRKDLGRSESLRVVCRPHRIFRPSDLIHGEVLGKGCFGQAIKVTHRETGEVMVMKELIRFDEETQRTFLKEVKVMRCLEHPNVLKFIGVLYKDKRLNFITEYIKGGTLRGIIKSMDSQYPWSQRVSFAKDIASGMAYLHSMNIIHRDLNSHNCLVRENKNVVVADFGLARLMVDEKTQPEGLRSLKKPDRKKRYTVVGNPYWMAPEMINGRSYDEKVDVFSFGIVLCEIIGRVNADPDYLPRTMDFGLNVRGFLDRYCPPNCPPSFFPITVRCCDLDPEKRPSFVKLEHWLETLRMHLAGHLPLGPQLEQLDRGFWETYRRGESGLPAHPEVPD
Sequence of Luciferin 4-monooxygenase (P08659 whole entry): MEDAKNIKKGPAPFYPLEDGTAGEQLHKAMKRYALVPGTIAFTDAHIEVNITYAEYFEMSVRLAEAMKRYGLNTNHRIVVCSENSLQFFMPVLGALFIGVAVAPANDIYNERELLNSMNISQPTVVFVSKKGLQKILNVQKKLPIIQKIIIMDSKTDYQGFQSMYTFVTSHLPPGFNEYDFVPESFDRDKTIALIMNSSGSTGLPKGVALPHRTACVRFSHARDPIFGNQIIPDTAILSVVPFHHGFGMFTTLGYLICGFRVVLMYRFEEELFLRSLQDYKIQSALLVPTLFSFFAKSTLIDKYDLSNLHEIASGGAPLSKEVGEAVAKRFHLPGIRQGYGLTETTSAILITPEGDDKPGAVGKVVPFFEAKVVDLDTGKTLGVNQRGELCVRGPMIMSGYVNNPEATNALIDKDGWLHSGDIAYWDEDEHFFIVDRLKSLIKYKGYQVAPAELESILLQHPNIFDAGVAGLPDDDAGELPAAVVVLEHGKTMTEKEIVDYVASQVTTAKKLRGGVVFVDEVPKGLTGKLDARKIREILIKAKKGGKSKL
Sequence of Serine/threonine-protein kinase Chk1 (O14757 whole entry): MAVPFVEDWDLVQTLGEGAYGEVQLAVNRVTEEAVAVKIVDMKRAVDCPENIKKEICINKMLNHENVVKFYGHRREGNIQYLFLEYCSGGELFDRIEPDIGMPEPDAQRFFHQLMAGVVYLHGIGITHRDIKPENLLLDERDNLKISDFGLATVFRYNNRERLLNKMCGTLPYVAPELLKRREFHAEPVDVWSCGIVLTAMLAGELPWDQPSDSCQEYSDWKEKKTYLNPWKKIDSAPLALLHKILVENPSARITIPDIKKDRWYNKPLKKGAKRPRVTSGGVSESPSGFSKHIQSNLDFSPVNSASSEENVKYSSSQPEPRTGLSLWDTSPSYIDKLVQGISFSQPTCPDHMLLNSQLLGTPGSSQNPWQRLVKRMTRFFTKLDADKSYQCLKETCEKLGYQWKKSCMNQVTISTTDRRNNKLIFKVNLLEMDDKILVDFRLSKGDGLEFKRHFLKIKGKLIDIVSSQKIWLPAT
Sequence of Cyclin-dependent kinase 8 (P49336 whole entry): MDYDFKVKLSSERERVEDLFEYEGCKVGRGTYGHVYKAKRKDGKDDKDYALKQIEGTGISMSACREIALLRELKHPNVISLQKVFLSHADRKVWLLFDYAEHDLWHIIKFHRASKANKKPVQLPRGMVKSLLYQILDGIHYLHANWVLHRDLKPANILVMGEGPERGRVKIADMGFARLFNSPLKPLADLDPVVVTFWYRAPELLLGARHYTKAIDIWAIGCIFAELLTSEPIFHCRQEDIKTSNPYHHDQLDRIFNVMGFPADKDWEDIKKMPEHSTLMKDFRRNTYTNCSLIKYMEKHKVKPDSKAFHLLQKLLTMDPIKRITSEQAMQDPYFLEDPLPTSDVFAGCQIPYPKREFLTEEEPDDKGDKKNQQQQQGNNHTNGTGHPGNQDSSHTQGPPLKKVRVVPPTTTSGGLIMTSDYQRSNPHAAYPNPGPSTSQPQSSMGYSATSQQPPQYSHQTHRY

Row | SMILES | IC50 [5] | IC50 [6] | IC50 (Caspase-3) | EC50 [2] | IC50 [7] | further results
1 | COc1cc(C2C(C#N)=C(N)Oc3cc(N)ccc32)cc(OC)c1OC (stereo not drawn) | – | – | – | 13.5 µM (active) | – | IC50 [1]: > 80 µM (inactive)
2 | CC(Oc1ccccc1)C(=O)N(CCC1=CCCCC1)c1c(N)n(Cc2ccccc2)c(=O)[nH]c1=O (stereo not drawn) | – | – | – | 15 µM (active) | – | EC50 [3]: > 112 µM (not active); EC50 [4]: > 112 µM (not active)
3 | O=S(=O)(Nc1ccc2ccccc2c1O)c1ccc(F)cc1 | – | – | – | – | – | Ki (LIM domain kinase 1): 2.51 µM (active); Ki [8]: 3.16 µM (active); Ki [9]: 3.16 µM (active); Ki [10]: 2.51 µM (active)
4 | CCOc1cccc(Oc2c(Cl)cnn(Cc3cccc4ccccc34)c2=O)c1 | – | – | – | – | – | IC50 [11]: 18.8 µM (inactive)

Second part, led by results:

Row | IC50 [5] | IC50 [6] | IC50 (Caspase-3) | SMILES | EC50 [2] | IC50 [7] | further results
5 | > 99 µM (inactive) | > 99 µM (inactive) | > 99 µM (inactive) | Cc1c(C(=O)Nc2nc3ccccc3s2)oc2ccccc12 | – | > 99 µM (inactive) | –
6 | > 99 µM (inactive) | > 99 µM (inactive) | > 99 µM (inactive) | CCN(CC)S(=O)(=O)c1ccc(C(=O)Nc2nc3c(C)ccc(Cl)c3s2)cc1 | – | > 99 µM (inactive) | –

Reference: ChEMBL document CHEMBL1201862, “PubChem BioAssay data set” (2004)
